Each block holds one compound with its values, some of them ahead of it.
Tests used:
[1] = test system: HPAC cells (KRAS G12D); assay: Cell-based pERK HTRF assay in HPAC cells (Biological Example 5)
Method: (§1) Biological Example 5: Cell-based PERK HTRF assay in AsPC-1, SW1900, HPAC, Capan-2, RKN, H358, HCT116, KP-2, H1573, A549, MKN1, and HT1080 cells
(§2) The inhibition of ERK phosphorylation, as measured using the HTRF Advanced Phospho-ERK 1/2 (Thr202/Tyr204) Detection Assay kit (Perkin Elmer), was used to determine the effectiveness of test compounds in disrupting KRAS-driven protein/effector signaling in cells.
(§3) On day 1, cells were seeded into 96-well plates at 2.5×10^4 cells/well in 100 μL of complete growth media supplemented with 10% fetal bovine serum (FBS) and incubated at 37° C., in the presence of 5% CO2.
(§4) On day 2, cells were treated with compounds diluted in DMSO at 0.25% final DMSO concentration. Compounds were dosed in a 9-point concentration curve with three-fold dilution between concentrations. Cells were incubated in the presence of compound for two hours at 37° C. Following this treatment period, cells were harvested by aspirating the media, adding 40 μL of kit-supplied 1x lysis buffer per well, and shaking for 30 minutes at 250 rpm at room temperature.
(§5) Following cell lysis, samples were homogenized by pipetting up and down twenty times and 16 μL of cell lysate per well was transferred from the 96-well cell culture plate to two wells of a 384-well detection plate. A complete detection buffer was prepared by diluting D2 and Eu Cryptate antibodies 1:20 in kit-provided detection solution, 4 μL of complete detection buffer was then added to each well with lysate. Plates were incubated with gentle rocking for 24 hours at 4° C.
(§6) Following this incubation period, plates were centrifuged at 500×g for one minute and analyzed on a CLARIOstar plate reader. Data was imported into Microsoft Excel and the signal from the 665 nm channel was divided by the signal from the 620 nm channel. % pERK was calculated as: […]
(§7) Data was imported to the Prism software package (Graphpad) and EC50 values were calculated using the log (inhibitor) vs, response—variable slopc (Four parameters) model.

[2] = test system: H358 cells (KRAS G12C); assay: Cell-based pERK HTRF assay in H358 cells (Biological Example 5)
Method: as §1, §2, §3, §4, §5, §6, §7

[3] = test system: MKN1 cells (KRAS amplification); assay: Cell-based pERK HTRF assay in MKN1 cells (Biological Example 5)
Method: as §1, §2, §3, §4, §5, §6, §7

[4] = test system: HPAC cells (KRAS G12D); assay: 3D Cell viability assay in HPAC cells (Biological Example 6); assay type: cell-based; details: HPAC (KRAS G12D) spheroids
Method: (§8) Biological Example 6: 3D Cell viability assay in AsPC-1, SW1900, HPAC, Capan-2, RKN, H358, HCT116, KP-2, H1573, A549, MKN1, and HT1080 cells
(§9) The inhibition of cellular viability as a result of test compound treatment in a spheroid assay was measured using the CellTiter-Glow 3D Cell Viability Assay (Promega).
(§10) On Day 1, 1000 cells per well were seeded in 150 μL of complete growth media supplemented with 10% fetal bovine serum (FBS) and incubated at 37° C., in the presence of 5% CO2 in 96-well ultra-low attachment microplates (Corning) for 48 hours undisturbed to allow spheroids to form.
(§11) Following spheroid formation, cells were treated with compounds diluted in DMSO at 0.25% final DMSO concentration. Compounds were dosed in a 9-point concentration curve with three-fold dilution between concentrations. Cells were incubated in the presence of compound for 72 hours at 37° C., in the presence of 5% CO2.
(§12) Following this incubation period, the kit-provided CTG reagent was allowed to equilibrate for 30 minutes at room temperature, 150 μL of equilibrated CTG reagent was added to each well, and the plate was sealed before shaking at 250 rpm for 10 minutes at room temperature to lyse the cells, 150 μL of lysate per well was transferred to a 96-well plate and luminescence was read on a CLARIOstar plate reader.
(§13) Data was imported into the Prism software package (Graphpad) and EC50 values were calculated using the log (inhibitor) vs, response—variable slope (Four parameters) model.

[5] = test system: AsPC-1 cells (KRAS G12D); assay: 3D Cell viability assay in AsPC-1 cells (Biological Example 6); assay type: cell-based; details: AsPC-1 (KRAS G12D) spheroids, 72 hours
Method: as §8, §9, §10, §11, §12, §13

[6] = target: T1, Avi-KRAS G12C (2-169) GTP/RAF1 RBD-3xFLAG (51-131) (Homo sapiens, UniProt P01116, G12C); assay: Raf1-KRAS G12C-GTP disruption HTRF assay (Biological Example 3); assay type: binding; details: KRAS G12C, GTP-loaded
T1 construct: Avi-KRAS G12C (2-169)
T1 sequence (P01116 2-169 isoform P01116-2 G12C): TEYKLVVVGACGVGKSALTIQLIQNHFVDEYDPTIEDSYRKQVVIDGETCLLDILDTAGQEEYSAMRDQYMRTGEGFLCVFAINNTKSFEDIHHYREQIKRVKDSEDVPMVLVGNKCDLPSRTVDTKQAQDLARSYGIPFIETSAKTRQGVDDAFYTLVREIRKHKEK
In short: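 Each KRAS-GTP/RAF1 RBD complex at 50 nM, with 75 nM 3xFLAG-RAF1 RBD (51-131)-Avi, in 50 mM Tris pH 7.5, 100 mM NaCl, 5 mM MgCl2, 0.1% BSA, 0.01% Tween 20, 10% DMSO. Compounds titrated from 30 μM, 10-point 3x series; 1 h at room temperature with shaking. HTRF read, activity as percent of DMSO.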

[7] = Homo sapiens, NCI-H358, H358 (KRAS G12C) cells
[8] = Homo sapiens, MKN-1, MKN cells (MKN1, KRAS amplification)
[9] = MKN cells (MKN1, KRAS amplification)

Structure (SMILES): CCN(c1nc(OC[C@@]23CCCN2C[C@H](F)C3)nc2c(F)c(-c3ccc(F)c4sc(N)c(C#N)c34)c(Cl)cc12)[C@@H]1CCN(C(C)=O)[C@@H]1C [Compound 323]
IC50 ([1]; Homo sapiens, HPAC): ≤ 100 nM
IC50 [2, 7]: ≤ 100 nM
IC50 [3, 8]: ≤ 100 nM
IC50 ([4]; Homo sapiens, HPAC, 72 h): ≤ 100 nM

Structure (SMILES): C[C@@H]1[C@H](N(C)c2nc(OC[C@@]34CCCN3C[C@H](F)C4)nc3c(F)c(-c4ccc(F)c5sc(N)c(C#N)c45)c(C(F)(F)F)cc23)CC(=O)N1C [Compound 440]
IC50 ([1]; Homo sapiens, HPAC): ≤ 100 nM
IC50 [2, 7]: 100 to 1000 nM
IC50 [3, 8]: ≤ 100 nM
IC50 ([5]; Homo sapiens, ASPC1): ≤ 100 nM
IC50 ([4]; Homo sapiens, HPAC, 72 h): 100 to 1000 nM

Structure (SMILES): N#Cc1c(N)sc2c(F)ccc(-c3c(C(F)(F)F)cc4c(N5CC6CC5CO6)nc(OC[C@@]56CCCN5C[C@H](F)C6)nc4c3F)c12 (some centres unmarked) [Compound 147]
IC50 ([4]; Homo sapiens, HPAC, 72 h): 100 to 1000 nM

Structure (SMILES): CCN(c1nc(OC[C@@]23CCCN2C[C@H](F)C3)nc2c(F)c(-c3ccc(F)c4sc(N)c(C#N)c34)c(C(F)(F)F)cc12)[C@H]1CCN(C(=O)C(C)C)C1 [Compound 332]
IC50 [1]: ≤ 100 nM
IC50 ([2]; H358 (KRAS G12C) cells): ≤ 100 nM
IC50 [3, 9]: ≤ 100 nM
IC50 ([5]; Homo sapiens, ASPC1): ≤ 100 nM
IC50 ([4]; Homo sapiens, HPAC, 72 h): 100 to 1000 nM

Structure (SMILES): CCN(c1nc(OC[C@@]23CCCN2C[C@H](F)C3)nc2c(F)c(-c3ccc(F)c4sc(N)c(C#N)c34)c(C(F)(F)F)cc12)[C@H]1CCN(C(=O)c2ncco2)C1 (atropisomer, axis not shown) [Compound 584]
IC50 ([1]; Homo sapiens, HPAC): 100 to 1000 nM
IC50 [2, 7]: ≤ 100 nM
IC50 [3, 8]: ≤ 100 nM
IC50 ([5]; Homo sapiens, ASPC1): ≤ 100 nM
IC50 ([4]; Homo sapiens, HPAC, 72 h): ≤ 100 nM

Structure (SMILES): CCN(c1nc(OC[C@@]23CCCN2C[C@H](F)C3)nc2c(F)c(-c3ccc(F)c4sc(N)c(C#N)c34)c(Cl)cc12)[C@@H]1CCN(C(=O)C2CC2)[C@@H]1C [Compound 337]
IC50 ([1]; Homo sapiens, HPAC): ≤ 100 nM
IC50 [2, 7]: ≤ 100 nM
IC50 [3, 8]: ≤ 100 nM
IC50 ([4]; Homo sapiens, HPAC, 72 h): 100 to 1000 nM

Structure (SMILES): CCC(=O)N1CC[C@@H](N(C)c2nc(OC[C@@]34CCCN3C[C@H](F)C4)nc3c(F)c(-c4ccc(F)c5sc(N)c(C#N)c45)c(C(F)(F)F)cc23)[C@H]1C [Compound 260]
IC50 ([1]; Homo sapiens, HPAC): 100 to 1000 nM
IC50 [2, 7]: ≤ 100 nM
IC50 [3, 8]: ≤ 100 nM
IC50 ([4]; Homo sapiens, HPAC, 72 h): 100 to 1000 nM

Structure (SMILES): N#Cc1c(N)sc2c(F)ccc(-c3c(C(F)(F)F)cc4c(N5CC6CC(C5)O6)nc(OC[C@@]56CCCN5C[C@H](F)C6)nc4c3F)c12 (single isomer, unassigned) [Compound 275]
IC50 ([1]; Homo sapiens, HPAC): 100 to 1000 nM
IC50 [2, 7]: ≤ 100 nM
IC50 [3, 8]: ≤ 100 nM
IC50 ([5]; Homo sapiens, ASPC1): > 1000 nM
IC50 ([4]; Homo sapiens, HPAC, 72 h): > 1000 nM

Structure (SMILES): N#Cc1c(N)sc2c(F)ccc(-c3c(C(F)(F)F)cc4c(N5CCOCC5)nc(OC[C@@]56CCCN5C[C@H](F)C6)nc4c3F)c12 (single isomer, unassigned) [Compound 198]
IC50 ([1]; Homo sapiens, HPAC): 100 to 1000 nM
IC50 [2, 7]: ≤ 100 nM
IC50 [3, 8]: ≤ 100 nM
IC50 ([4]; Homo sapiens, HPAC, 72 h): 100 to 1000 nM

Structure (SMILES): N#Cc1c(N)sc2c(F)ccc(-c3c(C(F)(F)F)cc4c(N5CCCOCC5)nc(OC[C@@]56CCCN5C[C@H](F)C6)nc4c3F)c12 [Compound 232]
IC50 ([1]; Homo sapiens, HPAC): ≤ 100 nM
IC50 [2, 7]: ≤ 100 nM
IC50 ([4]; Homo sapiens, HPAC, 72 h): > 1000 nM

Structure (SMILES): C[C@@H]1[C@H](N(C)c2nc(OC[C@@]34CCCN3C[C@H](F)C4)nc3c(F)c(-c4ccc(F)c5sc(N)c(C#N)c45)c(C(F)(F)F)cc23)CCN1C(=O)C1CC1 [Compound 258]
IC50 ([1]; Homo sapiens, HPAC): > 1000 nM
IC50 [2, 7]: ≤ 100 nM
IC50 [3, 8]: ≤ 100 nM
IC50 ([4]; Homo sapiens, HPAC, 72 h): 100 to 1000 nM

Structure (SMILES): CCN(c1nc(OC[C@@]23CCCN2C[C@H](F)C3)nc2c(F)c(-c3ccc(F)c4sc(N)c(C#N)c34)c(C(F)(F)F)cc12)[C@H]1C[C@H](C)N(C(=O)OC)C1 (atropisomer, axis not shown) [Compound 704]
IC50 [6]: 100 to 1000 nM
IC50 [2, 7]: ≤ 100 nM
IC50 [3, 8]: ≤ 100 nM
IC50 ([5]; Homo sapiens, ASPC1): ≤ 100 nM

Further lines, with some results ahead:

IC50 ([1]; Homo sapiens, HPAC): 100 to 1000 nM
IC50 [2, 7]: ≤ 100 nM
IC50 [3, 8]: ≤ 100 nM
Structure (SMILES): CC(=O)N1CC[C@@H](N(C)c2nc(OC[C@@]34CCCN3C[C@H](F)C4)nc3c(F)c(-c4ccc(F)c5sc(N)c(C#N)c45)c(Cl)cc23)[C@H]1C [Compound 398]
IC50 ([4]; Homo sapiens, HPAC, 72 h): 100 to 1000 nM

IC50 ([2]; H358 (KRAS G12C) cells): ≤ 100 nM
IC50 [3, 9]: ≤ 100 nM
IC50 [5]: ≤ 100 nM
Structure (SMILES): CCN(c1nc(OCC23CCCN2CC(F)C3)nc2c(F)c(-c3ccc(F)c4sc(N)c(C#N)c34)c(C(F)(F)F)cc12)C1CC(C)N(C(=O)N2CC(F)C2)C1 (centres unmarked) [Compound 759]

IC50 ([1]; Homo sapiens, HPAC): 100 to 1000 nM
IC50 [2, 7]: ≤ 100 nM
IC50 [3, 8]: ≤ 100 nM
Structure (SMILES): N#Cc1c(N)sc2c(F)ccc(-c3c(C(F)(F)F)cc4c(N5CCC[C@@H](O)C5)nc(OC[C@@]56CCCN5C[C@H](F)C6)nc4c3F)c12 [Compound 234]
IC50 ([4]; Homo sapiens, HPAC, 72 h): > 1000 nM

IC50 [1]: ≤ 100 nM
IC50 ([2]; H358 (KRAS G12C) cells): ≤ 100 nM
IC50 [3, 9]: ≤ 100 nM
Structure (SMILES): CN(c1nc(OC[C@@]23CCCN2C[C@H](F)C3)nc2c(F)c(-c3ccc(F)c4sc(N)c(C#N)c34)c(C(F)(F)F)cc12)[C@H]1C[C@@H](O)C1 [Compound 19, 2-amino-7-fluoro-4-((S)-8-fluoro-2-(((2R,7aS)-2-fluorotetrahydro-1H-pyrrolizin-7a(5H)-yl)methoxy)-4-(((1s,3R)-3-hydroxycyclobutyl)(methyl)amino)-6-(trifluoromethyl)quinazolin-7-yl)benzo[b]thiophene-3-carbonitrile]
IC50 ([4]; 72 hours): 100 to 1000 nM

IC50 [6]: 100 to 1000 nM
IC50 [2, 7]: ≤ 100 nM
IC50 [3, 8]: ≤ 100 nM
IC50 ([5]; Homo sapiens, ASPC1): ≤ 100 nM
Structure (SMILES): CCN(c1nc(OC[C@@]23CCCN2C[C@H](F)C3)nc2c(F)c(-c3ccc(F)c4sc(N)c(C#N)c34)c(C(F)(F)F)cc12)[C@H]1C[C@H](COC)N(C(=O)C2CC2)C1 (atropisomer, axis not shown) [Compound 696]

IC50 ([1]; Homo sapiens, HPAC): ≤ 100 nM
IC50 [2, 7]: ≤ 100 nM
IC50 [3, 8]: ≤ 100 nM
Structure (SMILES): CC(=O)N1CC[C@@H](N(C)c2nc(OC[C@@]34CCCN3C[C@H](F)C4)nc3c(F)c(-c4ccc(F)c5sc(N)c(C#N)c45)c(C(F)(F)F)cc23)[C@H]1C (single isomer, unassigned) [Compound 193]
IC50 ([4]; Homo sapiens, HPAC, 72 h): 100 to 1000 nM

Source: patent US20260042764A1, “COMPOSITIONS AND METHODS FOR INHIBITION OF KRAS” (TheRas, Inc., priority 2022, published 2026)
